How the values were obtained:
[1] = Clearance in rat at 0.01 mg/kg, iv; assay type: ADME, organism-based; settings: in vivo
[2] = Oral bioavailability in rat at 1 mg/kg; assay type: ADME, organism-based; settings: in vivo
[3] = molecular target: Prostaglandin E2 receptor EP4 subtype (Homo sapiens, UniProt P35408); experiment: Agonist activity at human EP4 receptor
[4] = molecular target: T1, Prostaglandin E2 receptor EP1 subtype (Homo sapiens, UniProt P34995); experiment: Binding affinity to human EP1 receptor
T1 sequence (P34995 whole entry): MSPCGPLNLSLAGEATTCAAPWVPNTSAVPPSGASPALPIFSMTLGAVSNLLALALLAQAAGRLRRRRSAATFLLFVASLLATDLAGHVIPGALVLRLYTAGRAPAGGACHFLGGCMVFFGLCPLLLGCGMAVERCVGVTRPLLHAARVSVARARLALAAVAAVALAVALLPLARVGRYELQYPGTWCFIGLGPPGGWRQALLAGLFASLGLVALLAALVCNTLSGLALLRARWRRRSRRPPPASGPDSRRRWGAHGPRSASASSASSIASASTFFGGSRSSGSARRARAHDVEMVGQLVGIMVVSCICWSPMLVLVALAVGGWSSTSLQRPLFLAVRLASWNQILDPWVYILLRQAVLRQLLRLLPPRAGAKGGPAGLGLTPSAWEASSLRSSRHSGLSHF

[5] = Half life in rat at 0.01 mg/kg, iv; assay type: ADME, organism-based; settings: in vivo
[6] = AUC in rat at 1 mg/kg, po; assay type: ADME, organism-based; settings: in vivo
[7] = molecular target: Prostaglandin E2 receptor EP2 subtype (Homo sapiens, UniProt P43116); experiment: Agonist activity at human EP2 receptor
Sequence of Prostaglandin E2 receptor EP2 subtype (P43116 whole entry): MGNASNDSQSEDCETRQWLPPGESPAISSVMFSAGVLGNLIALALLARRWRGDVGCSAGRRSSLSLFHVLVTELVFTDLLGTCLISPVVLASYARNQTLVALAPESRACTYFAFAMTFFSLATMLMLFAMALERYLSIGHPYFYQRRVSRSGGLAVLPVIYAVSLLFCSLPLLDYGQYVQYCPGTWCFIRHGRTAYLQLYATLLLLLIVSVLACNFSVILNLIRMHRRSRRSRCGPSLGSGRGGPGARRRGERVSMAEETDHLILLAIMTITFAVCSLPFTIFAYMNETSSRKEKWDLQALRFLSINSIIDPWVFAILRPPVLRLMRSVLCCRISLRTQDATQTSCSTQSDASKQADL

[8] = molecular target: T2, Prostaglandin E2 receptor EP3 subtype (Homo sapiens, UniProt P43115); experiment: Agonist activity at human EP3 receptor
T2 sequence (P43115 whole entry): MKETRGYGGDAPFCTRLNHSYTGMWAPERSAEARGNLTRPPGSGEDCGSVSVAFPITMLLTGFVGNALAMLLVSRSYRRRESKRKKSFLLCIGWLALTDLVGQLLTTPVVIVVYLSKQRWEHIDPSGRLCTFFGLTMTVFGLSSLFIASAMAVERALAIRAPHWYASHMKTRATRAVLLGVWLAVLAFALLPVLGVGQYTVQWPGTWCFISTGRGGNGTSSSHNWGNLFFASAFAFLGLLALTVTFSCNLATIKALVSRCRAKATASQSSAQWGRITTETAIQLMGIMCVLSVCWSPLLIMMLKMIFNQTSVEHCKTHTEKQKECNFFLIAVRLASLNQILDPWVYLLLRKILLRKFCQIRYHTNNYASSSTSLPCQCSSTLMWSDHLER

Sequence of Prostaglandin E2 receptor EP4 subtype (P35408 whole entry): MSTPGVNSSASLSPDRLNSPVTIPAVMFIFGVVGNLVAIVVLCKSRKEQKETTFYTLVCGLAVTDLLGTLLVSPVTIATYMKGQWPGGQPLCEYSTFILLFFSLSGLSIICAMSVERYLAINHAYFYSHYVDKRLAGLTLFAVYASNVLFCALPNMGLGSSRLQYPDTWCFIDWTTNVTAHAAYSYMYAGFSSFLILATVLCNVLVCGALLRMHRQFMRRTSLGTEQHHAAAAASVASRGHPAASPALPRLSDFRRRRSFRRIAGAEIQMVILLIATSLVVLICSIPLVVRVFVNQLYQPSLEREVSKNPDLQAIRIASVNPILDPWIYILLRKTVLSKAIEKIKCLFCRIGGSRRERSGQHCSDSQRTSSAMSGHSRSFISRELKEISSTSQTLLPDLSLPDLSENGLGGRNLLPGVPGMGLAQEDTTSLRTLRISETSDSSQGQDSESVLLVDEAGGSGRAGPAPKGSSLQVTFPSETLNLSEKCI

SMILES | clearance [1] | bioavailability [2] | EC50 [3] | Ki [4] | half-life [5] | AUC [6] | EC50 [7] | EC50 [8]
CC(C)(CCCCF)[C@H](O)/C=C/[C@H]1COC(=O)N1CCSc1nc(C(=O)O)cs1 | – | – | 1220 nM | 431 nM | – | – | 5.7 nM | 4.7 nM
CC(C)(C)CCC1([C@H](O)/C=C/[C@H]2COC(=O)N2CCSc2nc(C(=O)O)cs2)CCC1 | – | – | 4710 nM | 149 nM | – | – | 3700 nM | 6.7 nM
CC#CCC1([C@H](O)/C=C/[C@H]2COC(=O)N2CCSc2nc(C(=O)O)cs2)CCC1 | – | – | 240 nM | 89 nM | – | – | 21 nM | 18 nM
O=C(O)c1csc(SCCN2C(=O)OC[C@@H]2/C=C/[C@@H](O)C2(CCc3ccccc3)CCC2)n1 | – | – | 465 nM | 802 nM | – | – | 160 nM | 27 nM
COCCCC1([C@H](O)/C=C/[C@H]2COC(=O)N2CCSc2nc(C(=O)O)cs2)CCC1 | – | – | 705 nM | > 10000 nM | – | – | 18 nM | 25 nM
CCCCC(C)(C)[C@H](O)/C=C/[C@H]1COC(=O)N1CCSc1nc(C(=O)O)cs1 | – | – | 320 nM | 120 nM | – | – | 7.4 nM | 50 nM
CCOCCC1([C@H](O)/C=C/[C@H]2COC(=O)N2CCSc2nc(C(=O)O)cs2)CCC1 | – | – | 745 nM | 8420 nM | – | – | 29 nM | 2610 nM
O=C(O)c1csc(SCCN2C(=O)OC[C@@H]2/C=C/[C@@H](O)C2(CCC3CCCCC3)CCC2)n1 | – | – | 8390 nM | 1330 nM | – | – | 60 nM | 7.4 nM

Now those with a lower EC50 [3], led by results:

clearance [1] | bioavailability [2] | EC50 [3] | Ki [4] | half-life [5] | AUC [6] | EC50 [7] | EC50 [8] | SMILES
9.5 mL/min/kg | 2.5% | 195 nM | 1080 nM | 4.4 h | 41 ng·h/mL | 2.9 nM | 10 nM | O=C(O)c1csc(SCCN2C(=O)OC[C@@H]2/C=C/[C@@H](O)C2(CCCCF)CCC2)n1
– | – | 4.2 nM | – | – | – | 0.91 nM | 8.4 nM | CCCCC(C)(C)[C@H](O)/C=C/[C@H]1CCC(=O)N1CCSc1nc(C(=O)O)cs1
– | – | 73 nM | 220 nM | – | – | 2.9 nM | 3.9 nM | CCCCC1([C@H](O)/C=C/[C@H]2COC(=O)N2CCSc2nc(C(=O)O)cs2)CCC1
– | – | 3 nM | – | – | – | 0.39 nM | 310 nM | CCCC[C@H](C)C[C@H](O)/C=C/[C@H]1CCC(=O)N1CCSc1nc(C(=O)O)cs1
